Data taken from BindingDB's records for doi:10.1016/j.bmcl.2007.04.051 (Eli Lilly, 2007).

Experiments:
Estrogen receptor beta = Estrogen receptor beta (Homo sapiens, UniProt Q92731); assay: Estrogen Receptor Binding Assay.; settings: pH 7.5; 22 °C
Experimental: (§1) The binding affinities were determined by a competitive radiometric binding assay using [3H]estradiol as tracer. The Kd for 3H-estradiol was determined by saturation binding to ER receptors. The IC50 values for compounds were converted to Ki using Cheng-Prusoff equation.

Estrogen receptor = target: T1, Estrogen receptor (Homo sapiens, UniProt P03372); assay: Estrogen Receptor Binding Assay.; settings: pH 7.5; 22 °C
T1 sequence (P03372 whole entry): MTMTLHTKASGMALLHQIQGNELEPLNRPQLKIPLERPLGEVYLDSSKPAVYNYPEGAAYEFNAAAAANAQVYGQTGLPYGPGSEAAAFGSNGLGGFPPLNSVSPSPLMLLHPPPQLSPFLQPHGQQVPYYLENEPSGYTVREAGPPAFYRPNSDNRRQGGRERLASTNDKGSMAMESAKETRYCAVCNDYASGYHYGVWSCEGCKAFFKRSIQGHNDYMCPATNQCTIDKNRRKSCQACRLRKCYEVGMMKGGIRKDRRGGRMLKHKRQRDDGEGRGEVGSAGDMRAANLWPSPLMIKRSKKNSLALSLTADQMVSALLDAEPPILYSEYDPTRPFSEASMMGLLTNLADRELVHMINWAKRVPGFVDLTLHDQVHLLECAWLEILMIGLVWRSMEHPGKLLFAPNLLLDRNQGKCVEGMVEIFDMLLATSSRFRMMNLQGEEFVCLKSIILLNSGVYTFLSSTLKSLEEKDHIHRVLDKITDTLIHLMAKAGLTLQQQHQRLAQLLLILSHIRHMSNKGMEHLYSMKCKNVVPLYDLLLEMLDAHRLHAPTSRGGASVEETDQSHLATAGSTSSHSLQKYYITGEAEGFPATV
Experimental: as §1

Chain of Estrogen receptor beta (Q92731 whole entry): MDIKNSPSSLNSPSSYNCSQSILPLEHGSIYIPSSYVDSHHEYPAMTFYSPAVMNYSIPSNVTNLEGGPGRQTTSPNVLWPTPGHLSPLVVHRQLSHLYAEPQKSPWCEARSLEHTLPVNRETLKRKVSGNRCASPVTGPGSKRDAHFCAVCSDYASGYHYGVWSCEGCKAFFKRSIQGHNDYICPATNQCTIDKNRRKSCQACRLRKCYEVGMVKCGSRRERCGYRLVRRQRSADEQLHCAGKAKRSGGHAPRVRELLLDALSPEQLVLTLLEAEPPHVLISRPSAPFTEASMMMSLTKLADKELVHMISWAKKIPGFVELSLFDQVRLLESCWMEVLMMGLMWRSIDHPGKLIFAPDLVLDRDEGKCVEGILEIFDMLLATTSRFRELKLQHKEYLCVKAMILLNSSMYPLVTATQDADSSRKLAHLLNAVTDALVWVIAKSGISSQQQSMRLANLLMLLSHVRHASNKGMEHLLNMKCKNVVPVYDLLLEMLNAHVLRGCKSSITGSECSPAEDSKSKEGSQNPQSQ

Compound	Ki (Estrogen receptor beta)	Ki (Estrogen receptor)
Oc1ccc([C@@H]2Oc3ccc(O)cc3[C@@H]3CCCC[C@@H]32)cc1 [racemic mixture]	0.63 nM	2.88 nM
Oc1ccc([C@@H]2Oc3ccc(O)cc3[C@@H]3CCCCC[C@@H]32)cc1 [racemic mixture]	0.88 nM	6.11 nM
Oc1ccc([C@@H]2Oc3cccc(O)c3[C@@H]3CCC[C@@H]32)cc1 [racemic mixture]	0.66 nM	0.35 nM
Oc1cccc([C@@H]2Oc3ccc(O)cc3[C@@H]3CCC[C@@H]32)c1 (racemic) [(2R,6S,7R)-7-(3-hydroxyphenyl)-8-oxatricyclo[7.4.0.0^{2,6}]trideca-1(9),10,12-trien-12-ol]	–	65 nM
Oc1ccc2c(c1)[C@@H]1CCC[C@@H]1[C@H](c1ccccc1)O2 [racemic mixture]	–	267 nM
Oc1ccc([C@@H]2CCc3cc(O)ccc3O2)cc1 [racemic mixture]	–	126 nM
Oc1ccc([C@@H]2Oc3ccccc3[C@@H]3CCC[C@@H]32)cc1 (racemic) [4-[(2R,6S,7R)-8-oxatricyclo[7.4.0.0^{2,6}]trideca-1(9),10,12-trien-7-yl]phenol]	22.1 nM	40 nM
Oc1ccc([C@@H]2Oc3cc(O)ccc3[C@@H]3CCC[C@@H]32)cc1 [racemic mixture]	18.9 nM	41 nM
